Key:
[1] = LNP characterization of base editor LNP preparations (DLS diameter, PDI, encapsulation efficiency); type: physicochemical
Protocol: (§1) Lipid nanoparticle components are dissolved in 100% ethanol at specified lipid component molar ratios. mRNA encoding an adenine base editor and a chemically-modified sgRNA is dissolved at a mass ratio of 1:1 in 10 mM citrate, 100 mM NaCl, pH 4.0, resulting in a concentration of NA cargo of approximately 0.22 mg/mL. LNP preparations are formulated with molar ratios of either 50% Ionizable Lipid: 38.5% Cholesterol: 1.5% PEG2000-DMG: 10% DSPC or 47.5% Ionizable Lipid: 40% Cholesterol: 2.5% PEG2000-DMG: 10% DSPC both at a total lipid to NA molar ratio of 6.
(§2) LNP preparations are formed by microfluidic mixing of the lipid and NA solutions using a Precision Nanosystems NanoAssemblr Ignite Instrument, according to the manufacturer's protocol. A 3:1 ratio of aqueous to organic solvent is maintained during mixing using differential flow rates. After mixing, LNP preparations are collected, diluted in PBS (approximately 2:1 v/v), and further buffer exchange is conducted using dialysis in PBS at 4° C. for 8 to 24 hours against a 20 kDa filter. After this initial dialysis, each individual LNP preparation is characterized via dynamic light scattering (DLS) to measure size and polydispersity. pKa of a subpopulation of LNP preparations is measured via TNS assay. After dialysis, LNP preparations are sterile filtered using 0.22 micron sterile filter and stored at 4° C. for further use. In some embodiments, LNP preparations may be concentrated using 100 kDa Amicon filters per manufacturer's protocol.
DLS—LNP preparation hydrodynamic diameter and polydispersity index (PDI) is measured using high throughput dynamic light scattering (DLS) (DynaPro plate reader II, Wyatt). LNP preparations are diluted 1×PBS to an appropriate concentration and analyzed.
Concentration of NA is determined by Qubit microRNA kit (for siRNA) or HS RNA kit (for mRNA) per manufacturer's instructions. Encapsulation efficiency is determined by measuring unlysed and lysed LNPs.

PCSK9 target site = assay: In vivo base editing with ABE mRNA and sgRNA targeting PCSK9; parameters: species or system Balb/c mice; settings: dose 0.03 MPK (mg total RNA/kg) IV, formulation ratio 47.5:40:2.5:10, liver, 4 days after dosing
Protocol: as §1, §2
(§3) Male Balb/C mice aged approximately 8-12 weeks are used in the experiments described herein. Each mouse is temporarily restrained, and LNP preparations are administered IV via tail vein injection. Age-matched mice are also used to administer vehicle (1×PBS) via tail vein injection as a control. Four to six days post-dose, tissues including liver, spleen, heart and muscle are collected (only liver and muscle (quardracept) are reported). Genomic DNA is isolated and fragmented and adapter-ligated using the Nextera DNA Flex Library Prep Kit (Illumina) using the 96-well plate Nextera indexing primers (Illumina), according to the manufacturer's instructions. Library size and concentration is confirmed by Fragment Analyzer (Agilent) and sent to Novogene for whole genome sequencing using an Illumina HiSeq.
For base editing, mRNA encoding an adenine base editor (ABE) and a guide RNA (sgRNA) targeting PCSK9 at 1:1 (mass ratio) are coencapsulated in LNP preparations as described herein. LNP preparations are administrated into Balb/c mice through tail vein injections at concentration of 0.03 mg total RNA/kg. […] Base editing is determined by performing targeted deep sequencing analysis at the PCSK9 target site using extracted genomic DNA.

[2] = LNP preparation characterization (encapsulation efficiency, DLS size and polydispersity), barcoded screen LNPs; type: physicochemical; settings: LNP 47.5% ionizable lipid: 40% cholesterol: 2.5% PEG-2000 DMG: 10% DPSC, N/P 4.5-6; for AVG PDI / AVG Z Dia (nm): DLS
Protocol: Lipid nanoparticle components were dissolved in 100% ethanol at specified lipid component molar ratios. Nucleic acid (NA) cargo was dissolved in 10 mM citrate, 100 mM NaCl, pH 4.0, resulting in a concentration of NA cargo of approximately 0.22 mg/mL. In some embodiments, NA cargos included both a functional NA and a reporter barcode mixed at mass ratios of 1:10 to 10:1 functional NA to barcode. As described herein, a NA can be a siRNA, an anti-sense, an expressing DNA, or mRNA.
LNP preparations were prepared with 47.5% Ionizable Lipid (e.g., a compound provided herein): 40% cholesterol: 2.5% PEG-2000 DMG: 10% DPSC and an N/P ratio range of 4.5-6. LNP preparations were formed by microfluidic mixing of the lipid and NA solutions using Precision Nanosystems NanoAssemblr Spark or Benchtop series Instruments, according to the manufacturer's protocol.
A ratio of aqueous to organic solvent of approximately 2:1 or 3:1 was maintained during mixing using differential flow rates. After mixing, LNP preparations were collected, diluted in phosphate buffer saline (PBS) or Tris-buffered saline (TBS) (approximately 1:1 v/v). Further buffer exchange was conducted using dialysis in PBS or TBS at 4° C. for 4 to 24 hours against a 20 kDa filter. After this initial dialysis, each individual LNP preparation may be characterized via dynamic light scattering (DLS) to measure the size (e.g., diameter) and polydispersity. LNP preparations falling within specific diameter and polydispersity ranges were pooled, and further dialyzed against PBS or TBS at 4° C. for 1 to 4 hours against a 100 kDa dialysis cassette. After the second dialysis, LNP preparations were sterile filtered using 0.22 μm filter and stored at 4° C. for further use.

ALAS1 target site = assay: In vivo base editing with ABE mRNA and sgRNA targeting ALAS1; parameters: species or system Balb/c mice; settings: for Liver Editing A->G (%): 4 days after dosing
Protocol: as §1, §2, §3
For base editing, mRNA encoding an adenine base editor (ABE) and a guide RNA (sgRNA) targeting ALAS1 at 1:1 (mass ratio) are coencapsulated in LNP preparations as described herein. LNP preparations are administrated into Balb/c mice through tail vein injections at concentrations ranging from 0.05 to 3.0 mg/kg total RNA. At 4 days after dosing, mice are euthanized and liver, spleen and bone barrow are harvested. Base editing is determined by performing targeted deep sequencing analysis at the ALAS1 target site using extracted genomic DNA.

[3] = Table E LNPs, formulation ratio 47.5:40:2.5:10, ABE mRNA/PCSK9 sgRNA
[4] = Table D LNPs, formulation ratio 50:38.5:1.5:10, ABE mRNA/ALAS1 sgRNA
[5] = dose 3 MPK IV, formulation ratio 50:38.5:1.5:10, quadricep muscle
[6] = dose 3 MPK IV, formulation ratio 50:38.5:1.5:10, liver
[7] = Table C LNPs, formulation ratio 47.5:40:2.5:10, ABE mRNA/ALAS1 sgRNA

Row | Structure (SMILES) | Diameter (nm) [1, 3] | EE (%) [1, 3] | Liver Editing A->G (%) (PCSK9 target site) | PDI (%) [1, 3] | AVG EE(%) [2] | AVG PDI [2] | AVG Z Dia (nm) [2] | Diameter (nm) [1, 4] | EE (%) [1, 4] | PDI (%) [1, 4] | Quadrecept Editing A->G (%) (ALAS1 target site; [5]) | Liver Editing A->G (%) (ALAS1 target site; [6]) | Diameter (nm) [1, 7] | EE (%) [1, 7] | PDI (%) [1, 7] | Liver Editing A->G (%) (ALAS1 target site; dose 0.1 MPK IV, formulation ratio 47.5:40:2.5:10, liver) | Quadrecept Editing A->G (%) (ALAS1 target site; dose 0.1 MPK IV, formulation ratio 47.5:40:2.5:10, quadricep muscle) | Liver Editing A->G (%) (ALAS1 target site; dose 0.05 MPK IV, formulation ratio 50:38.5:1.5:10, liver) | Quadrecept Editing A->G (%) (ALAS1 target site; dose 3 MPK IV, formulation ratio 47.5:40:2.5:10, quadricep muscle)
1 | CC/C=C\CCCC(CCC/C=C\CC)OC(=O)CCCCCC(=O)OCC(COC(=O)CCCCCC(=O)OC(CCC/C=C\CC)CCC/C=C\CC)COC(=O)NCCCn1ccnc1 [Compound (32), 1-{2-[({[3-(1H-imidazol-1-yl)propyl]carbamoyl}oxy)methyl]-3-({7-oxo-7-[(3Z,12Z)-pentadeca-3,12-dien-8-yloxy]heptanoyl}oxy)propyl} 7-(3Z,12Z)-pentadeca-3,12-dien-8-yl heptanedioate] | 81.94 nm | 87.5% | 0.06% |  |  |  |  |  |  |  |  |  |  |  |  |  |  |  | 
2 | CC/C=C\CCCC(CCC/C=C\CC)OC(=O)CCCCCC(=O)OCC(COC(=O)CCCCCC(=O)OC(CCC/C=C\CC)CCC/C=C\CC)COC(=O)OCCCN1CCCC1 [Compound (30), 1-[3-({7-Oxo-7-[(3Z,12Z)-pentadeca-3,12-dien-8-yloxy]heptanoyl}oxy)-2-[({[3-(pyrrolidin-1-yl)propoxy]carbonyl}oxy)methyl]propyl] 7-(3Z,12Z)-pentadeca-3,12-dien-8-yl heptanedioate] | 67.06 nm | 97.15% | 1.53% |  |  |  |  |  |  |  |  |  |  |  |  |  |  |  | 
3 | CC/C=C\CCCC(CCC/C=C\CC)OC(=O)CCCCCC(=O)OCC(COC(=O)CCCCCC(=O)OC(CCC/C=C\CC)CCC/C=C\CC)COC(=O)OCCCN(CC)CC [Compound (29), O1-[2-[3-(diethylamino)propoxycarbonyloxymethyl]-3-[7-[(Z)-1-[(Z)-hept-4-enyl]oct-5-enoxy]-7-oxo-heptanoyl]oxy-propyl] O7-[(Z)-1-[(Z)-hept-4-enyl]oct-5-enyl] heptanedioate] | 65.7 nm | 96.55% | 7.53% | 11.9% |  |  |  |  |  |  |  |  |  |  |  |  |  |  | 
4 | CC/C=C\CCCC(CCC/C=C\CC)OC(=O)CCCCC(=O)OCC(COC(=O)CCCCC(=O)OC(CCC/C=C\CC)CCC/C=C\CC)COC(=O)CCCN1CCCC1 [Compound (12), 1-{2-[({6-Oxo-6-[(3Z,12Z)-pentadeca-3,12-dien-8-yloxy]hexanoyl}oxy)methyl]-3-{[4-(pyrrolidin-1-yl)butanoyl]oxy}propyl}6-(3Z,12Z)-pentadeca-3,12-dien-8-yl hexanedioate] |  |  |  |  | 63.6% | 0.12 | 105.44 nm | 82.7 nm | 72.57% | 17.4% | 0.22% |  |  |  |  |  |  |  | 
5 | C=CCCCCCCC(CCCCCCC=C)OC(=O)CCCCC(=O)OCC(COC(=O)CCCCC(=O)OC(CCCCCCC=C)CCCCCCC=C)COC(=O)CCCN1CCCC1 [Compound (3), 1-Heptadeca-1,16-dien-9-yl6-[2-({[6-(hentadeca-1,16-dien-9-yloxy)-6-oxohexanoyl]oxy}methyl)-3-{[4-(pyrrolidin-1-yl)butanoyl]oxy}propyl]hexanedioate] |  |  |  |  | 85.3% | 0.13 | 77.22 nm | 69.8 nm | 99.3% | 11.9% | 3.8% | 69.43% |  |  |  |  |  |  | 
6 | C=CCCCC(CCCC=C)COC(=O)CCCCCC(=O)OCC(COC(=O)CCCCCC(=O)OCC(CCCC=C)CCCC=C)COC(=O)CCCN1CCCC1 [Compound (18), 1-(2-{[(7-Oxo-7-{[2-(pent-4-en-1-yl)hept-6-en-1-yl]oxy}heptanoyl)oxy]methyl}-3-{[4-(pyrrolidin-1-yl)butanoyl]oxy}propyl) 7-[2-(pent-4-en-1-yl)hept-6-en-1-yl] heptanedioate] |  |  |  |  | 98.2% | 0.07 | 138.63 nm | 149.3 nm | 88.58% | 13.1% | 2.5% |  | 106 nm | 93.9% | 16.9% | 0.99% | 0.29% |  | 
7 | C=CCCCCCC(CCCCCC=C)OC(=O)CCCCCC(=O)OCC(COC(=O)CCCCCC(=O)OC(CCCCCC=C)CCCCCC=C)COC(=O)OCC1CCCN(CC)C1 (stereo not drawn) [Compound (25), O1-[2-[(1-ethyl-3-piperidyl)methoxycarbonyloxymethyl]-3-[7-(1-hept-6-enyloct-7-enoxy)-7-oxo-heptanoyl]oxy-propyl] O7-(1-hept-6-enyloct-7-enyl) heptanedioate] |  |  |  |  | 94.4% | 0.12 |  | 79.55 nm | 96.9% |  |  |  | 75.47 nm | 99.1% | 1.2% |  |  | 0.27% | 2.93%
8 | C=CCCCCC(CCCCC=C)OC(=O)CCCCCCC(=O)OCC(COC(=O)CCCCCCC(=O)OC(CCCCC=C)CCCCC=C)COC(=O)CCCN1CCCC1 [Compound (6), 1-[2-({[8-Oxo-8-(trideca-1,12-dien-7-yloxy)octanoyl]oxy}methyl)-3-{[4-(pyrrolidin-1-yl)butanoyl]oxy}propyl]-8-trideca-1,12-dien-7-yl octanedioate] |  |  |  |  | 78.0% | 0.10 | 97.43 nm | 73.7 nm | 98.07% | 15.3% | 1.17% | 78.46% |  |  |  |  |  |  | 
